Data from ChEMBL document CHEMBL1201862, “PubChem BioAssay data set” (2004).
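48-hour exposure; five concentrations; linearly interpolated endpoints. Abbreviation: GI50, concentration required for 50% inhibition of growth.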 Active and inactive are the calls of the source. No stated cut-off is given here; in the data, active = GI50 up to about 1.1 µM and inactive = higher.

Legend:
Test in all cases: NCI tumour cell line growth inhibition, 48 h
CCRF-CEM = test system: CCRF-CEM
HCC 2998 = test system: HCC 2998
K562 = test system: K562
KM12 = test system: KM12
MOLT-4 = test system: MOLT-4
OVCAR-8 = test system: OVCAR-8
RPMI-8226 = test system: RPMI-8226
RXF 393 = test system: RXF 393
SF-268 = test system: SF-268
SK-OV-3 = test system: SK-OV-3
SN12C = test system: SN12C
UACC-257 = test system: UACC-257
A498 = test system: A498
HOP-62 = test system: HOP-62
LOX IMVI = test system: LOX IMVI
SNB-75 = test system: SNB-75

SMILES	GI50 (CCRF-CEM)	GI50 (HCC 2998)	GI50 (K562)	GI50 (KM12)	GI50 (MOLT-4)	GI50 (OVCAR-8)	GI50 (RPMI-8226)	GI50 (RXF 393)	GI50 (SF-268)	GI50 (SK-OV-3)	GI50 (SN12C)	GI50 (UACC-257)	GI50 (A498)	GI50 (HOP-62)	GI50 (LOX IMVI)	GI50 (SNB-75)
CC1CCC2(OCCO2)[C@]2(C)CC(O)C(=O)C=C12 (stereo partly drawn)	> 100 µM (inactive)	> 100 µM (inactive)	> 100 µM (inactive)	> 100 µM (inactive)	> 100 µM (inactive)	> 100 µM (inactive)	> 100 µM (inactive)	> 100 µM (inactive)	> 100 µM (inactive)	> 100 µM (inactive)	> 100 µM (inactive)	> 100 µM (inactive)				
CC(=O)OC12CCCCC1C1(CCCC1)NC2=O (stereo not drawn)	> 100 µM (inactive)	> 100 µM (inactive)	> 100 µM (inactive)	> 100 µM (inactive)	> 100 µM (inactive)	> 100 µM (inactive)	> 100 µM (inactive)	> 100 µM (inactive)	> 100 µM (inactive)	> 100 µM (inactive)	> 100 µM (inactive)	> 100 µM (inactive)	> 100 µM (inactive)	> 100 µM (inactive)	> 100 µM (inactive)	> 100 µM (inactive)
O=C1[C@H]2ON(c3ccccc3)C(c3ccccc3)[C@H]2C(=O)N1c1ccc(Cc2ccc(N3C(=O)[C@@H]4ON(c5ccccc5)C(c5ccccc5)[C@@H]4C3=O)cc2)cc1 (stereo partly drawn)	> 100 µM (inactive)	> 100 µM (inactive)	> 100 µM (inactive)	> 100 µM (inactive)	> 100 µM (inactive)		> 100 µM (inactive)	88.1 µM (inactive)	> 100 µM (inactive)	> 100 µM (inactive)	> 100 µM (inactive)	> 100 µM (inactive)	> 100 µM (inactive)	> 100 µM (inactive)	> 100 µM (inactive)	> 100 µM (inactive)
O=C(/C(=C/c1ccccc1)c1ccccc1)N1c2ccccc2CC1c1c[nH]c2ccccc12 (stereo not drawn)	8.91 µM (inactive)	> 100 µM (inactive)	5.05 µM (inactive)	10.2 µM (inactive)	3.33 µM (inactive)	> 100 µM (inactive)	15.6 µM (inactive)	6.07 µM (inactive)		> 100 µM (inactive)	22.2 µM (inactive)	54.5 µM (inactive)	> 100 µM (inactive)	> 100 µM (inactive)	21.6 µM (inactive)	> 100 µM (inactive)
Cc1ccc(NC(=O)C(=O)C2NC(=S)NC2=O)c([N+](=O)[O-])c1 (stereo not drawn)	> 100 µM (inactive)	> 100 µM (inactive)	> 100 µM (inactive)	> 100 µM (inactive)	> 100 µM (inactive)	> 100 µM (inactive)	> 100 µM (inactive)	> 100 µM (inactive)	> 100 µM (inactive)	> 100 µM (inactive)	> 100 µM (inactive)	> 100 µM (inactive)	> 100 µM (inactive)	> 100 µM (inactive)	> 100 µM (inactive)	> 100 µM (inactive)
Cc1ccc(S(=O)(=O)N/N=C\c2c3ccccc3[n+](C)c3ccccc23)cc1	15.3 µM (inactive)	92.7 µM (inactive)	15.6 µM (inactive)	34.6 µM (inactive)	17.6 µM (inactive)	38.5 µM (inactive)	29.8 µM (inactive)	15.9 µM (inactive)	29.2 µM (inactive)	> 100 µM (inactive)	48.6 µM (inactive)	30.8 µM (inactive)	20.4 µM (inactive)	34.1 µM (inactive)	11.2 µM (inactive)	20 µM (inactive)
CC(=O)C1C(=O)C(=O)N(CCN2C(=O)C(=O)C(C(C)=O)C2=O)C1=O (stereo not drawn)		> 100 µM (inactive)	> 100 µM (inactive)	> 100 µM (inactive)		> 100 µM (inactive)	> 100 µM (inactive)	> 100 µM (inactive)	> 100 µM (inactive)	> 100 µM (inactive)	> 100 µM (inactive)	> 100 µM (inactive)	> 100 µM (inactive)	> 100 µM (inactive)	> 100 µM (inactive)	> 100 µM (inactive)
COc1ccc(CC2NCCc3c2[nH]c2ccccc32)cc1 (stereo not drawn)	46.2 µM (inactive)	23.7 µM (inactive)	32.6 µM (inactive)	58.1 µM (inactive)	31.9 µM (inactive)	> 100 µM (inactive)	30.4 µM (inactive)		79.6 µM (inactive)	> 100 µM (inactive)	40.9 µM (inactive)		> 100 µM (inactive)	> 100 µM (inactive)	42 µM (inactive)	39.1 µM (inactive)
Cc1ccc(Nc2nc3c(s2)C(=O)c2ccccc2C3=O)cc1	1.58 µM (inactive)	2.01 µM (inactive)	2.29 µM (inactive)	1.55 µM (inactive)	1.04 µM (active)	2.18 µM (inactive)	1.23 µM (inactive)		1.9 µM (inactive)	24.9 µM (inactive)	1.92 µM (inactive)	1.75 µM (inactive)	16.4 µM (inactive)	7.16 µM (inactive)	1.58 µM (inactive)	2.14 µM (inactive)
CC1(C)OCN(c2ccc(N3CCOCC3)cc2)Cn2c1nc1ccccc12	40.7 µM (inactive)	> 100 µM (inactive)	> 100 µM (inactive)	> 100 µM (inactive)	> 100 µM (inactive)	> 100 µM (inactive)	27.9 µM (inactive)	39.1 µM (inactive)	> 100 µM (inactive)	> 100 µM (inactive)	> 100 µM (inactive)	46.1 µM (inactive)	> 100 µM (inactive)	> 100 µM (inactive)	31.8 µM (inactive)	> 100 µM (inactive)
FC(F)(F)c1nc2ccc3[nH]c4c(-c5ccccc5)nccc4c3c2[nH]1	> 45.7 µM (inactive)	> 100 µM (inactive)	> 56.9 µM (inactive)	> 100 µM (inactive)	> 100 µM (inactive)	> 100 µM (inactive)	> 42.9 µM (inactive)	> 100 µM (inactive)	> 100 µM (inactive)	> 100 µM (inactive)	> 100 µM (inactive)	> 100 µM (inactive)	> 100 µM (inactive)	> 100 µM (inactive)	> 46.8 µM (inactive)	> 100 µM (inactive)
O=C(O/N=C1/CCCC/C1=C\c1ccccc1)c1ccc(Cl)cc1	> 100 µM (inactive)	0.0177 µM (active)	> 100 µM (inactive)	> 100 µM (inactive)		> 100 µM (inactive)	> 100 µM (inactive)	> 100 µM (inactive)	> 100 µM (inactive)	> 100 µM (inactive)	> 100 µM (inactive)	> 100 µM (inactive)		> 100 µM (inactive)	57.8 µM (inactive)	88.7 µM (inactive)
COc1cccc(N2C(=O)[C@H]3[C@H]4CC(C(C)(C)C)CC[C@H]4c4c([nH]c5ccccc45)[C@H]3C2=O)c1 (stereo partly drawn)	13.7 µM (inactive)	28.4 µM (inactive)	14 µM (inactive)	39 µM (inactive)	11.9 µM (inactive)	14.9 µM (inactive)	15.4 µM (inactive)	21.1 µM (inactive)	27.3 µM (inactive)	20.8 µM (inactive)	13.4 µM (inactive)	20.6 µM (inactive)		17.7 µM (inactive)	16.5 µM (inactive)	15.3 µM (inactive)
C/C(CN1C(=O)c2ccccc2C1=O)=N\NS(=O)(=O)c1ccc(Cl)cc1	> 100 µM (inactive)	> 100 µM (inactive)	> 100 µM (inactive)	> 100 µM (inactive)	> 100 µM (inactive)	> 100 µM (inactive)	> 100 µM (inactive)				18.8 µM (inactive)	> 100 µM (inactive)	> 100 µM (inactive)	> 100 µM (inactive)		> 100 µM (inactive)
NS(=O)(=O)c1ccc(NC(=O)c2cccc3c(=O)c4ccccc4[nH]c23)cc1	5.85 µM (inactive)	> 100 µM (inactive)	62.2 µM (inactive)	22.2 µM (inactive)	18.2 µM (inactive)	> 100 µM (inactive)	28.4 µM (inactive)		30.6 µM (inactive)	19.9 µM (inactive)	94.4 µM (inactive)	> 100 µM (inactive)	51.3 µM (inactive)	39.8 µM (inactive)	20.7 µM (inactive)	15.3 µM (inactive)
O=[N+]([O-])c1nccn1COCCI	> 100 µM (inactive)		> 100 µM (inactive)	> 100 µM (inactive)	> 100 µM (inactive)	> 100 µM (inactive)	> 100 µM (inactive)		> 100 µM (inactive)	> 100 µM (inactive)	> 100 µM (inactive)	> 100 µM (inactive)		> 100 µM (inactive)	> 100 µM (inactive)	> 100 µM (inactive)
CC(=O)c1cc2c3c(c1)c1cc4c(cc1c(=O)n3CC2)OCO4	11.9 µM (inactive)	> 100 µM (inactive)	18.1 µM (inactive)	8.63 µM (inactive)	2.92 µM (inactive)	8.3 µM (inactive)	17.6 µM (inactive)	32.4 µM (inactive)		> 100 µM (inactive)	16.8 µM (inactive)	26.7 µM (inactive)		44.5 µM (inactive)	13.9 µM (inactive)	34.4 µM (inactive)
CCc1c(OC(C)=O)c2c(NC3OC(COC(C)=O)C(OC(C)=O)C(OC(C)=O)C3OC(C)=O)nc(OC)nc2oc1=O (stereo not drawn)	> 100 µM (inactive)	> 100 µM (inactive)	> 100 µM (inactive)	> 100 µM (inactive)	> 100 µM (inactive)	> 100 µM (inactive)	> 100 µM (inactive)	> 100 µM (inactive)		> 100 µM (inactive)	> 100 µM (inactive)	> 100 µM (inactive)	> 100 µM (inactive)	> 100 µM (inactive)	> 100 µM (inactive)	> 100 µM (inactive)
